Literature values as cited in article PMC4871733 (Nature chemical biology, 2016).

Experiments:
[1] = after 30 minute exposure
[2] = after 30 minute exposure; remark: listed apart in the source
[3] = not given; remark: listed apart in the source
[4] = after 30 minute exposure; remark: listed apart in the source

Stability in human liver microsomes [1]: > 90%
Efflux ratio: 1.35
Stability in rat liver microsomes [2]: > 90%
Aqueous kinetic solubility [3]: 79 µM
Stability in mouse liver microsomes [4]: > 90%
Compound: Cn1c2cc([S+](C)[O-])sc2c2cnn(Cc3cccc(N)c3)c(=O)c21 (centres unmarked) [ML265]
